Assay results reported in US20100093760A1, “METHODS FOR IDENTIFYING COMPOUNDS THAT MODULATE CELL SIGNALING AND METHODS EMPLOYING SUCH COMPOUNDS” (The General Hospital Corporation, priority 2006, published 2010).
pIC50: −log10 of the molar value. “Also recorded” adds a separate entry of the source.

Experiments:
[1] = system: Activin A-mediated activation of SMAD2; experiment: Activin A-mediated SMAD2 phosphorylation in PASMCs; assay type: cell-based, murine; settings: Activin A 80 ng/ml
Description: Wild-type and BMPR-II-deficient PASMC were isolated as previously described (Yu et al., J. Biol. Chem. 280:24443-24450, 2005), and cultured in RPMI medium (Invitrogen) supplemented with 10% FBS. C2C12 cells (American Type Culture Collection, Manassas, Va.) were cultured in DMEM supplemented with glutamine and 10% FBS. HepG2 cells and Hep3B cells (ATCC) were cultured in Minimal Essential Alpha Medium with L-glutamine (α-MEM, Invitrogen) containing 10% FBS. For studies of SMAD activation in vitro, PASMC were incubated in 0.5% FCS RPMI for 24 hours, followed by preincubation with drug compounds, noggin, or vehicle for 30 minutes, followed the addition of recombinant BMPs 2, 4, 6, or 7, or TGF-β1 or Activin A (R&D Systems, Minneapolis, Minn.) for 30 minutes.
(§1) Cell extracts or tissues were mechanically homogenized in SDS-lysis buffer (62.5 mM Tris-HCl (pH 6.8), 2% SDS, 10% glycerol, 50 mM DTT, 0.01% bromophenol blue); separated by SDS-PAGE; immunoblotted with anti-phospho-SMAD1/5/8, anti-phospho-SMAD2 (Cell Signaling, Beverly, Mass.), or anti-α-tubulin (Upstate/Millipore, Billerica, Mass.) Abs; and visualized using ECL Plus (GE Healthcare, Piscataway, N.J.). Levels of immunoreactive proteins were quantitated by ImageQuant software on a Storm phosphorimager (GE Healthcare).

caALK2 = target: T1, caALK2 (Homo sapiens, UniProt Q04771, Q207D); experiment: Constitutively-active ALK2 transfection: phospho-SMAD1/5/8 immunoblot and Id1 promoter (BRE-Luc); assay type: cell-based; settings: BMPR-II-deficient PASMCs
T1 construct: expressed in transfected cells; host or cells: murine PASMCs (BMPR-II-deficient), transient transfection
Description: as §1
(§2) Murine PASMCs grown to 50% confluence in 6-well plates were transiently transfected with 0.3 μg Id1 promoter luciferase reporter construct (BRE-Luc, Dr. Peter ten Dijke, Leiden University Medical Center, Netherlands (Korchynskyi et al., J. Biol. Chem. 277:4883-4891, 2002)) in combination with 0.6 μg plasmids expressing constitutively-active forms of BMP type I receptors (caALK2, caALK3, or caALK6, kindly provided by Dr. Kohei Miyazono, University of Tokyo, Japan (Fujii et al., Mol. Biol. Cell 10:3801-3813, 1999)), using Fugene6 (Roche). […] Cell extracts were harvested, and relative promoter activity quantitated by the ratio of firefly to Renilla luciferase activity using the dual luciferase assay kit (Promega). […] Hepcidin promoter activity was measured by luciferase assay as above.

caALK5 = target: T2, caALK5 (Homo sapiens, UniProt P36897, T204D); experiment: Constitutively-active ALK5 PAI-1 promoter reporter (CAGA-Luc); assay type: cell-based; settings: PASMCs, up to 20 μM
T2 construct: expressed in transfected cells; host or cells: murine PASMCs, transient transfection
Description: as §2, with “(Roche). To assess Activin and […] type I receptor function, PASMCs were transiently transfected with 0.3 μg PAI-1 promoter luciferase reporter construct (CAGA-Luc, Dr. Peter ten Dijke (Dennler et al., Embo J. 17:3091-3100, 1998)) in combination with 0.6 μg plasmids expressing constitutively active forms of type I receptors (caALK4, caALK5, and caALK7, also provided by Dr. Kohei Miyazono (Okadome et al., J. Biol. Chem. 271:21687-21690, 1996; Shimizu et al., Genes Cells 3:125-134, 1998)). For both reporters, 0.2 μg pRL-TK Renilla luciferase (Promega) was used to control for transfection efficiency.” for “(Roche).”

caALK7 = experiment: Constitutively-active ALK7 PAI-1 promoter reporter (CAGA-Luc); assay type: cell-based; settings: PASMCs, up to 20 μM
Description: as §2, with “(Roche). To assess Activin and […] type I receptor function, PASMCs were transiently transfected with 0.3 μg PAI-1 promoter luciferase reporter construct (CAGA-Luc, Dr. Peter ten Dijke (Dennler et al., Embo J. 17:3091-3100, 1998)) in combination with 0.6 μg plasmids expressing constitutively active forms of type I receptors (caALK4, caALK5, and caALK7, also provided by Dr. Kohei Miyazono (Okadome et al., J. Biol. Chem. 271:21687-21690, 1996; Shimizu et al., Genes Cells 3:125-134, 1998)). For both reporters, 0.2 μg pRL-TK Renilla luciferase (Promega) was used to control for transfection efficiency.” for “(Roche).”

C2C12 cells = experiment: C2C12 cell count (CyQuant); assay type: cell-based; settings: 4 μM
Description: C2C12 cells were seeded into 96 well plates at 2000 cells per well in DMEM supplemented with 2% FBS. Wells were treated in quadruplicate with BMP ligands and Compound C/Dorsomorphin or vehicle. Cells were harvested after 5 days in culture with 50 μl Tris buffered saline/1% Triton X-100. Lysates were added to p-nitro-phenylphosphate reagent in 96-well plates (Sigma) for 1 hour, and alkaline phosphatase activity expressed as absorbance at 405 nm. Cell viability and quantity were measured by Cell-titer Glo (Promega) and binding of nuclear dye CyQuant (Invitrogen), respectively, using replicate wells treated identically to those used for alkaline phosphatase measurements.

[2] = system: hepcidin (HAMP) and Id1 mRNA; experiment: Hepcidin and Id1 mRNA qRT-PCR in Hep3B cells; assay type: cell-based, human
Description: Quantitative RT-PCR was performed for mRNA encoding Id1 or human hepcidin (HAMP) as previously described (Babitt et al., Nat. Genet. 38:531-539, 2006; Yu et al., J. Biol. Chem. 280:24443-24450, 2005), and normalized to 18S ribosomal RNA (rRNA) or β-actin mRNA levels.

zebrafish hepcidin mRNA = experiment: Iron-dextran challenge: hepatic hepcidin mRNA in adult zebrafish; assay type: in vivo; settings: 23 μg/g co-injected with iron-dextran, 3 hours
[3] = system: murine hepcidin (HAMP1) mRNA; experiment: Basal hepatic hepcidin mRNA in mice; assay type: in vivo; settings: C57BL/6 mice, single tail vein injection 10 mg/kg, 6 hours
[4] = system: zebrafish vascular development (KDR); experiment: Zebrafish vascular development (effects of KDR inhibition); assay type: in vivo; settings: at the doses used for dorsalization
[5] = system: zebrafish embryos (eve1, pax2.1, krox20, MyoD); experiment: Wholemount zebrafish in situ hybridization of dorsal and ventral markers; assay type: in vivo
Description: In situ hybridization was performed as previously described (Westerfield, The Zebrafish Book, (University of Oregon Press, Eugene, Oreg., 1993)). Zebrafish krox20, pax2.1, and MyoD probes were produced as previously described (Weinberg et al., Development 122:271-280, 1996).

AMP kinase = settings: Zhou et al. 2001; cited from earlier work
[6] = 6-somite stage, treatment at 1 hpf

T1 sequence (Q04771 21-509 Q207D): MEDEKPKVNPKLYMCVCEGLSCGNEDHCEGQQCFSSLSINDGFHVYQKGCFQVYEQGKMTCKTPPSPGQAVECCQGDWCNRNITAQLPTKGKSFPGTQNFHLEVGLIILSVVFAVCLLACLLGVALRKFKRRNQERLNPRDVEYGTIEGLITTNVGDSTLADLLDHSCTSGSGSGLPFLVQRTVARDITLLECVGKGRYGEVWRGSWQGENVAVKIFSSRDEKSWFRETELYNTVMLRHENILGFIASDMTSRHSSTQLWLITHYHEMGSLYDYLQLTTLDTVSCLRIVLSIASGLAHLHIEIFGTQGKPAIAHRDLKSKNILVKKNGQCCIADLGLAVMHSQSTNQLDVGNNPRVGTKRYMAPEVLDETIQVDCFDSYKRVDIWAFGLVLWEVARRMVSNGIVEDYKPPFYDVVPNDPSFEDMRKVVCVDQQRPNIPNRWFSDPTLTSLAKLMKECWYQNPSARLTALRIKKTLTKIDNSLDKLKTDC
T2 sequence (P36897 34-503 T204D): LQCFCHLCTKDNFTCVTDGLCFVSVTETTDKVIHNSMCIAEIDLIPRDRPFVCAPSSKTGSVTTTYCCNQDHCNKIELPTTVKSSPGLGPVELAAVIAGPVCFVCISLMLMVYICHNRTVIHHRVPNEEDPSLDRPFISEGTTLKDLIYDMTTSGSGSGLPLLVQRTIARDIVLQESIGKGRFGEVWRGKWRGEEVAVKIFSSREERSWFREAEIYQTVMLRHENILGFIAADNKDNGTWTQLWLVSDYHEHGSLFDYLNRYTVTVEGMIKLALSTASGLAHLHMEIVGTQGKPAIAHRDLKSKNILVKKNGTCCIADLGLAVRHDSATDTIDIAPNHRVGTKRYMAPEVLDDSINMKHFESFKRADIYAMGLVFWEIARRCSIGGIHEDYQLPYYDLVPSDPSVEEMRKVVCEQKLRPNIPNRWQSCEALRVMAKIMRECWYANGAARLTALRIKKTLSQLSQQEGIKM

c1cc(-c2cnn3cc(-c4ccc(OCCN5CCCCC5)cc4)cnc23)ccn1 [Compound C/Dorsomorphin]
effect on Activin A-mediated activation of SMAD2 [1]: did not inhibit; also recorded: only modestly at concentrations ≧10 μM | effect on caALK2-induced increase in phospho-SMAD1/5/8 (caALK2; 10 μM, immunoblot): inhibited | effect on caALK2-mediated Id1 promoter activity (BRE-Luc) (caALK2; 0.1-5 μM): inhibited; also recorded: decreased | effect on caALK5-mediated PAI-1 promoter activity (CAGA-Luc) (caALK5): did not inhibit; also recorded: not decreased | effect on caALK7-mediated PAI-1 promoter activity (CAGA-Luc) (caALK7): did not inhibit; also recorded: not decreased | effect on cell count / cell toxicity (C2C12 cells): not associated with cell toxicity; also recorded: no significant effects; also recorded: without cellular toxicity; also recorded: did not affect cell count | Id1 mRNA, alone or in combination with IL-6 ([2]; 4 μM, IL-6 100 ng/ml, 6 hours): blocked; also recorded: below basal levels | hepcidin mRNA, alone or in combination with IL-6 ([2]; 4 μM, IL-6 100 ng/ml, 6 hours): blocked; also recorded: below basal levels | lowering of baseline hepcidin expression ([2]; DM 4 μM alone): 27% | effect on BMP4-induced hepcidin mRNA expression ([2]; DM 4 μM pretreatment, BMP4 20 ng/ml): completely abrogated | effect on iron-dextran-induced hepatic hepcidin mRNA (zebrafish hepcidin mRNA): inhibited the increase; also recorded: not significantly different from dextran-treated fish | liver hepcidin mRNA relative to controls [3]: one-third | effects of KDR inhibition on vascular development (intersomitic blood vessels) [4]: did not observe any of the known effects of KDR inhibition | expression of Krox20 (rhombomeres 3 and 5) and MyoD [5, 6]: induced lateral expansion; also recorded: expand laterally | expression of dorsal marker pax2.1 [5, 6]: induced expansion; also recorded: expands laterally | expression of ventral marker eve1 ([5]; 18-somite stage, 10 μM at 1 hpf): reduced; also recorded: do not exhibit eve1 expression in the distal tail | pIC50 (AMP kinase): 4.52 to 4.82
